The series deals with T1, TLR8 (Homo sapiens, UniProt Q9NR97).
T1 sequence (Q9NR97 27-1041): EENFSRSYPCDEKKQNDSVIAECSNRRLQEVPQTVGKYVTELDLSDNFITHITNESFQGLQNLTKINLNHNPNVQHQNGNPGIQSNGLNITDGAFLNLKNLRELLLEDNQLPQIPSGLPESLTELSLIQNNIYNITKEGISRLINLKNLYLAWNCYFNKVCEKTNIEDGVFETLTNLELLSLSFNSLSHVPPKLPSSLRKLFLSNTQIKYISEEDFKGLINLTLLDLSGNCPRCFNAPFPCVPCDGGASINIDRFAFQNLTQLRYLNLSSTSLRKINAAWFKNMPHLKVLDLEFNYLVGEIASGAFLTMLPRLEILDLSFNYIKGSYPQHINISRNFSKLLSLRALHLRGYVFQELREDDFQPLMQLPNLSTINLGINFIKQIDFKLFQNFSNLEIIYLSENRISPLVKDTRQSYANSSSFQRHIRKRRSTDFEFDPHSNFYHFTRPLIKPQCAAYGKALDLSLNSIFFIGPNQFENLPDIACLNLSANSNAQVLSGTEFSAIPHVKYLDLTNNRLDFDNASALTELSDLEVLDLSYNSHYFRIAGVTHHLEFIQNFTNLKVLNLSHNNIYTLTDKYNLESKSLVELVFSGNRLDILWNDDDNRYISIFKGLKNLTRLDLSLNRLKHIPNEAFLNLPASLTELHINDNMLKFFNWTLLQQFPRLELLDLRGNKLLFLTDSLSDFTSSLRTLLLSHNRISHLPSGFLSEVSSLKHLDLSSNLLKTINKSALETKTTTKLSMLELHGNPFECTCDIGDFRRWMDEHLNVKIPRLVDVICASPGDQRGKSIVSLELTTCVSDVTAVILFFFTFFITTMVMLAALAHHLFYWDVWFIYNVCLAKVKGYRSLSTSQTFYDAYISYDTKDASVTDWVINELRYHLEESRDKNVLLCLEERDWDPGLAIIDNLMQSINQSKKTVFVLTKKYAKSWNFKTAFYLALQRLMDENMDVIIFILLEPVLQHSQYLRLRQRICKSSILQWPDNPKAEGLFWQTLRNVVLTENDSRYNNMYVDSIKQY
As to the kind of experiment: HEK-TLR8 NF-κB-luciferase reporter, R848 or Motolimod stimulation (potentiation or inhibition). Type of series: cell-based. Also noted: expressed in transfected cells; host or cells: 293XLhTLR8 (HEK293). Particulars: averaged NF-κB-Luciferase relative to R848 condition (fold increase); for TLR8 100 nM: MOE-modified ASO at 100 nM; for TLR8 500 nM: MOE-modified ASO at 500 nM. (In general: A reporter such as luciferase makes a cellular process visible.)

We go through 21 sequences from patent publication US20240384268A1, “Oligonucleotides” (Hudson Institute of Medical Research, priority 2021, published 2024).

For “CACCCACTTGGCAGACCATC (antisense; 2'-MOE modified, pattern not given here) [CTNN2B-1576 MOE]”, the “TLR8 100 nM” value is listed as 1.440 and the “TLR8 500 nM” value is listed as 1.502.
The like results for “GGTGGTCCACAACCCCTTTC (antisense; 2'-MOE modified, pattern not given here) [MB21D1-697 MOE]” were, in that order, 2.121 and 3.700.
As to “AACACTTCGTGGGGTCCTTT (antisense; 2'-MOE modified, pattern not given here) [HPRT-664 MOE]”, the “TLR8 100 nM” value came out at 2.725 and the “TLR8 500 nM” value is 3.167.
Regarding “GGAGATTTCAGAGCAGCTTC (antisense; 2'-MOE modified, pattern not given here) [EGFR-4885 MOE]”, the “TLR8 100 nM” value came out at 3.122 and the “TLR8 500 nM” value amounted to 4.308.
As to “GCGACTATACGCGCAATATG (antisense; 2'-MOE modified, pattern not given here) [NC5 2′MOE]”, the “TLR8 100 nM” value turned out to be 1.067 and the “TLR8 500 nM” value worked out at 0.883.
The like results for “GCGTGTCTGGAAGCTTCCTT (antisense; 2'-MOE modified, pattern not given here) [CTNN2B-809 MOE]” were, in that order, 1.179 and 0.494.
“TTGGCTCGGCTTGCCTACTT (antisense; 2'-MOE modified, pattern not given here) [CAMSAP1-5594 MOE]”: the “TLR8 100 nM” value is listed as 1.096 and the “TLR8 500 nM” value was determined as 0.813.
Regarding “CTGTGATCTTGACATGCTGC (antisense; 2'-MOE modified, pattern not given here) [EGFR-2790 MOE]”, the “TLR8 100 nM” value came to 1.308 and the “TLR8 500 nM” value is given as 1.387.
The like results for “ACTGACTGTCTTGAGGGTTC (antisense; 2'-MOE modified, pattern not given here) [MB21D1-1483 MOE]” were, in that order, 2.454 and 3.185.
The like results for “GTCTTGGCTTCGTGGAGCAG (antisense; 2'-MOE modified, pattern not given here) [MB21D1-520 MOE]” were, in that order, 2.383 and 3.536.
The like results for “GTCCTTGCACGTGGCTTCGT (antisense; 2'-MOE modified, pattern not given here) [EGFR-1013 MOE]” were, in that order, 1.900 and 1.593.
As for “CAGATAGCACCTTCAGCACT (antisense; 2'-MOE modified, pattern not given here) [CTNN2B-1294 MOE]”, the “TLR8 100 nM” value is on record as 1.773 and the “TLR8 500 nM” value came out at 2.356.
The like results for “GAGTCTCTGGAGCTTCCTCT (antisense; 2'-MOE modified, pattern not given here) [CAMSAP1-2456 MOE]” were, in that order, 0.849 and 0.683.
As to “GCGGAGGTCTTGGCTTCGTG (antisense; 2'-MOE modified, pattern not given here) [MB21D1-526 MOE]”, the “TLR8 100 nM” value is 1.598 and the “TLR8 500 nM” value came to 2.226.
For the sequence “GTGTCTTCATCGGCCCTGCC (antisense; 2'-MOE modified, pattern not given here) [CAMSAP1-2113 MOE]”, the “TLR8 100 nM” value is reported as 1.247 and the “TLR8 500 nM” value was determined as 1.093.
Regarding “TTCTGCAGCTTCCTTGTCCT (antisense; 2'-MOE modified, pattern not given here) [CTNN2B-2136 MOE]”, the “TLR8 100 nM” value was determined as 2.049 and the “TLR8 500 nM” value is on record as 2.408.
With “TCGCACTTCAGTCTGAGCAG (antisense; 2'-MOE modified, pattern not given here) [MB21D1-719 MOE]”, the “TLR8 100 nM” value amounted to 1.697 and the “TLR8 500 nM” value is reported as 2.158.
Regarding “CTCTTGAAGCATCGTATCAC (antisense; 2'-MOE modified, pattern not given here) [CTNN2B-3648 MOE]”, the “TLR8 100 nM” value stood at 1.650 and the “TLR8 500 nM” value came out at 2.200.
The like results for “ATGTCCCCTGTTGACTGGTC (antisense; 2'-MOE modified, pattern not given here) [HPRT-489 MOE]” were, in that order, 1.752 and 2.118.
For “TGTCTTCATCGGCCCTGCCT (antisense; 2'-MOE modified, pattern not given here) [CAMSAP1-2112 MOE]”, the “TLR8 100 nM” value is recorded as 1.331 and the “TLR8 500 nM” value stood at 1.178.
The like results for “ACAGTGTTGAGATACTCGGG (antisense; 2'-MOE modified, pattern not given here) [EGFR-3652 MOE]” were, in that order, 5.681 and 8.261.
